Test results as given in article PMC6695355, “Alanine Scanning Studies of the Antimicrobial Peptide Aurein 1.2” (Probiotics and Antimicrobial Proteins, 2018).
In brackets after ≈: the same amount, converted by molar mass. Where two headings read alike, the source gives them in different places. Where a SMILES comes first, the peptide text is derived from it.

Assays:
in vitro = in vitro ADME; conditions: bovine, serum
Procedure: To assess serum stability, the peptides (0.5 mg) were dissolved in 4 mL of 25% (v/v) fetal bovine serum (FBS) in PBS and incubated at 37 °C. The aliquots of 100 μL of the test samples were transferred to 96-well polystyrene plates in triplicate for each time point. Samples were quenched at zero time (t0) and after 6 h of incubation at 37 °C by addition of 100 μL of ice-cold acetonitrile and stored at 4 °C for 10 min. Afterwards, the samples were centrifuged at 13,000×g for 20 min at 4 °C and diluted 1:1 with HPLC-grade water. All samples were analyzed using the Waters Alliance e2695 system with Waters Acquity QDa Detector (software–Empower®3). Analyses were conducted on an Agilent Zorbax SB-C18 RP-18 column (4.6 × 50 mm, 1.8-μm particle size, 80-Å pore size) using a linear 30–60% acetonitrile (B) gradient in deionized water (A) over 6 min at 25.0 ± 0.1 °C, at a flow rate of 0.5 mL/min and MS working in selected ion recording (SIR) mode (A—0.1% aqueous formic acid (FA) and B—0.1% FA in acetonitrile). The percentage of peptide remaining intact was calculated from peak areas of samples at t0 and after 6 h of incubation in serum (the % of remaining peptide = peak area after 6 h/peak area at t0). The mass-to-charge ratios selected for SIR mode were based on values obtained from full spectrum analysis of each peptide and are presented in Table 1.

C. albicans ATCC 10231 = format: cell-based, Candida albicans; conditions: ATCC 10231, 24 h
Procedure: (§1) The minimum inhibitory concentrations (MICs) of test compounds were assessed by broth microdilution method on 96-well plates, according to the guidelines of Clinical and Laboratory Standards Institute (CLSI). For this purpose, reference strains of bacteria: S. aureus ATCC 25923, E. faecalis PCM 2673, E. coli ATCC 25922, and P. aeruginosa ATCC 9027; and fungus: C. albicans ATCC 10231 were used (The Polish Collection of Microorganism, Polish Academy of Sciences, Wrocław, Poland). Bacteria at initial inoculums of 0.5 × 10^5 CFU/mL in Mueller Hinton Broth (MHB), and fungi at initial inoculums of 2 × 10^3 CFU/mL in RPMI-1640, were exposed to the compounds over the concentration range of 1–512 μg/mL. The polystyrene plates were incubated at 37 °C for 18 h with bacteria and for 24 h with C. albicans. The MIC was taken as the lowest concentration at which a noticeable growth of microorganisms was inhibited. Minimum biofilm eradication concentrations (MBECs) were determined using a previously described protocol. For this purpose, 96-well polystyrene flat-bottom plates and a resazurin (7-hydroxy-3H-phenoxazin-3-one 10-oxide) were used. In this assay, a specific feature of resazurin is utilized, which upon the contact with living cells is metabolized and reduced from the basic blue form to pink resorufin. Briefly, 24-h cultures of microorganisms were diluted 1,000-fold and 100 μL of that suspension was added into the test plates. After 24 h of incubation at 37 °C, the wells of the plates were rinsed three times with phosphate buffer saline (PBS) to remove non-adherent cells. Subsequently, 100 μL of test compounds in concentration range (diluted in appropriate media) were added to each well. After 24 h of incubation at 37 °C, 20 μL of the resazurin (4 mg/mL) was added. The MBEC was read after 1 h. Additionally, anti-adhesive properties of the compounds were also analyzed. The assay was conducted on 96-well polystyrene flat-bottom plates. The preparation of inoculums was followed by a 500-fold dilution of 24-h cultures of microorganisms. Briefly, to evaluate the effect of the peptides in preventing biofilm formation, 50 μL of compounds in concentration range, diluted in appropriate medium, were prepared. Subsequently, the 50 μL of the bacterial/fungal inoculums were added to reach the same microbial density as that in MBEC assay. After 24 h of incubation at 37 °C, the wells were rinsed three times with PBS and the fresh media with resazurin (0.6 mg/mL) were added. Then, after 1 h of incubation, the minimum biofilm inhibitory concentrations (MBIC) were read. MBECs as well as MBICs were determined as the lowest concentration at which the reduction of resazurin was lower or equal (10% ± 0.5%) as compared to positive (100%) and negative (0%) controls. All experiments were performed in triplicate.

[1] = test system: C. albicans ATCC 10231 biofilm formation; format: cell-based, Candida albicans; conditions: ATCC 10231, 24 h
Procedure: as §1

[2] = test system: C. albicans ATCC 10231 biofilm; format: cell-based, Candida albicans; conditions: ATCC 10231, 24 h
Procedure: as §1

[3] = test system: E. faecalis PCM 2673 biofilm formation; format: cell-based, Enterococcus faecalis; conditions: 24 h
Procedure: as §1

[4] = test system: E. faecalis PCM 2673 biofilm; format: cell-based, Enterococcus faecalis; conditions: 24 h
Procedure: as §1

E. faecalis PCM 2673 = format: cell-based, Enterococcus faecalis; conditions: PCM 2673, 18 h
Procedure: as §1

[5] = test system: E. coli ATCC 25922 biofilm; format: cell-based, Escherichia coli; conditions: ATCC 25922, 24 h
Procedure: as §1

E. coli ATCC 25922 = format: cell-based, Escherichia coli; conditions: ATCC 25922, 18 h
Procedure: as §1

[6] = test system: E. coli ATCC 25922 biofilm formation; format: cell-based, Escherichia coli; conditions: ATCC 25922, 24 h
Procedure: as §1

[7] = test system: human red blood cells (RBCs); test: Hemolysis assay; format: cell-based
Procedure: The hemolytic activity of the peptides was determined using fresh human red blood cells (RBCs) collected from a healthy human donor according to the procedure described in the literature. Fresh RBCs with EDTA as anticoagulant were rinsed three times with a PBS by centrifugation at 800×g for 10 min and resuspension in PBS. Serial dilution of the peptides in PBS (1–256 μg/mL) on 96-well polystyrene plates was prepared and the stock solution of RBCs was added up to a final volume of 100 μL with a 4% concentration of erythrocytes (v/v). The control wells for 0 and 100% hemolysis contained of RBCs suspended in PBS and 1% of Triton-X 100, respectively. Subsequently, the plates were incubated for 1 h at 37 °C and then centrifuged at 800×g for 10 min at 4 °C (Sorvall ST 16R Centrifuge, Thermo Scientific). After centrifugation, the supernatant was carefully […] to new microtiter plates and the release of hemoglobin was measured at 540 nm (Multiskan™ GO Microplate Spectrophotometer, Thermo Scientific). All experiments were conducted in triplicate.

[8] = test system: S. aureus ATCC 25923 biofilm formation; format: cell-based, Staphylococcus aureus; conditions: ATCC 25923, 24 h
Procedure: as §1

[9] = test system: S. aureus ATCC 25923 biofilm; format: cell-based, Staphylococcus aureus; conditions: ATCC 25923, 24 h
Procedure: as §1

S. aureus ATCC 25923 = format: cell-based, Staphylococcus aureus; conditions: ATCC 25923, 18 h
Procedure: as §1

[10] = test system: P. aeruginosa ATCC 9027 biofilm formation; format: cell-based, Pseudomonas aeruginosa; conditions: ATCC 9027, 24 h
Procedure: as §1

P. aeruginosa ATCC 9027 = format: cell-based, Pseudomonas aeruginosa; conditions: ATCC 9027, 18 h
Procedure: as §1

[11] = test system: P. aeruginosa ATCC 9027 biofilm; format: cell-based, Pseudomonas aeruginosa; conditions: ATCC 9027, 24 h
Procedure: as §1

Row | SMILES | remaining at 6 h, 0.125 mg/mL (in vitro) | MIC, C. albicans ATCC 10231 (C. albicans ATCC 10231) | MBIC, C. albicans ATCC 10231 [1] | MBEC, C. albicans ATCC 10231 [2] | MBIC, E. faecalis PCM 2673 [3] | MBEC, E. faecalis PCM 2673 [4] | MIC, E. faecalis PCM 2673 (E. faecalis PCM 2673) | MBEC, E. coli ATCC 25922 [5] | MIC, E. coli ATCC 25922 (E. coli ATCC 25922) | MBIC, E. coli ATCC 25922 [6] | Percentage of hemolysis at 1 μg/mL ([7]; red cells of human, 1 h) | Percentage of hemolysis at 2 μg/mL ([7]; red cells of human, 1 h) | Percentage of hemolysis at 4 μg/mL ([7]; red cells of human, 1 h) | Percentage of hemolysis at 8 μg/mL ([7]; red cells of human, 1 h) | Percentage of hemolysis at 32 μg/mL ([7]; red cells of human, 1 h) | Percentage of hemolysis at 64 μg/mL ([7]; red cells of human, 1 h) | Percentage of hemolysis at 128 μg/mL ([7]; red cells of human, 1 h) | Percentage of hemolysis at 256 μg/mL ([7]; red cells of human, 1 h) | MBIC, S. aureus ATCC 25923 [8] | MBEC, S. aureus ATCC 25923 [9] | also measured
1 | CC[C@H](C)[C@H](NC(=O)[C@H](CCCCN)NC(=O)[C@H](CCCCN)NC(=O)[C@@H](NC(=O)[C@@H](NC(=O)[C@H](CC(=O)O)NC(=O)[C@H](Cc1ccccc1)NC(=O)[C@H](CC(C)C)NC(=O)CN)[C@@H](C)CC)[C@@H](C)CC)C(=O)N[C@@H](C)C(=O)N[C@@H](CCC(=O)O)C(=O)N[C@@H](CO)C(=O)N[C@@H](C)C(N)=O [Peptide F13A] (H-GLFDIIKKIAESA-NH2) | 54% | 512 µg/mL (≈ 365 µM) | 8 µg/mL | > 512 µg/mL | >512 µg/mL | > 512 µg/mL | 128 µg/mL (≈ 91.2 µM) | 512 µg/mL | 128 µg/mL (≈ 91.2 µM) | >512 µg/mL | 0.3% | 0.6% | 0.5% | 0.4% | 0.0% | 0.0% | 0.0% | 0.0% | >512 µg/mL | 128 µg/mL | Percentage of hemolysis at 16 μg/mL [7]: 0,0%; Hemolysis over the whole concentration range ([7]; 1–256 μg/mL, 4% human RBCs in PBS, 1 h, 37 °C): did not cause the lysis of RBCs; MIC, S. aureus ATCC 25923 (S. aureus ATCC 25923): > 512 µg/mL; MBIC, P. aeruginosa ATCC 9027 [10]: >512 µg/mL; MIC, P. aeruginosa ATCC 9027 (P. aeruginosa ATCC 9027): > 512 µg/mL; MBEC, P. aeruginosa ATCC 9027 [11]: > 512 µg/mL
2 | CC[C@H](C)[C@H](NC(=O)[C@H](CCCCN)NC(=O)[C@H](CCCCN)NC(=O)[C@@H](NC(=O)[C@@H](NC(=O)[C@H](CC(=O)O)NC(=O)[C@H](Cc1ccccc1)NC(=O)[C@H](CC(C)C)NC(=O)[C@H](C)N)[C@@H](C)CC)[C@@H](C)CC)C(=O)N[C@@H](C)C(=O)N[C@@H](CCC(=O)O)C(=O)N[C@@H](CO)C(=O)N[C@@H](Cc1ccccc1)C(N)=O [Peptide G1A] (H-ALFDIIKKIAESF-NH2) | 16% | 128 µg/mL (≈ 85.7 µM) | 4 µg/mL | > 512 µg/mL | 256 µg/mL | > 512 µg/mL | 128 µg/mL (≈ 85.7 µM) | 256 µg/mL | 128 µg/mL (≈ 85.7 µM) | 128 µg/mL | 0.0% | 0.0% | 0.0% | 0.0% | 0.0% | 0.0% | 0.3% | 4.2% | 512 µg/mL | 512 µg/mL | Percentage of hemolysis at 16 μg/mL ([7]; red cells of human, 1 h, 16): 0.0%; MIC, S. aureus ATCC 25923 (S. aureus ATCC 25923): 512 µg/mL (≈ 343 µM); MBIC, P. aeruginosa ATCC 9027 [10]: 256 µg/mL; MIC, P. aeruginosa ATCC 9027 (P. aeruginosa ATCC 9027): 512 µg/mL (≈ 343 µM); MBEC, P. aeruginosa ATCC 9027 [11]: 512 µg/mL
3 | CC[C@H](C)[C@H](NC(=O)[C@H](C)NC(=O)[C@H](CC(=O)O)NC(=O)[C@H](Cc1ccccc1)NC(=O)[C@H](CC(C)C)NC(=O)CN)C(=O)N[C@@H](CCCCN)C(=O)N[C@@H](CCCCN)C(=O)N[C@H](C(=O)N[C@@H](C)C(=O)N[C@@H](CCC(=O)O)C(=O)N[C@@H](CO)C(=O)N[C@@H](Cc1ccccc1)C(N)=O)[C@@H](C)CC [Peptide I5A] (H-GLFDAIKKIAESF-NH2) | 71% | 256 µg/mL (≈ 178 µM) | 4 µg/mL | 512 µg/mL | 512 µg/mL | > 512 µg/mL | 128 µg/mL (≈ 89 µM) | 512 µg/mL | 256 µg/mL (≈ 178 µM) | 512 µg/mL | 0.2% | 0.3% | 0.2% | 0.0% | 0.0% | 0.1% | 0.0% | 1.1% | > 512 µg/mL | > 512 µg/mL | Percentage of hemolysis at 16 μg/mL ([7]; red cells of human, 1 h, 16): 0.0%; MIC, S. aureus ATCC 25923 (S. aureus ATCC 25923): > 512 µg/mL; MBIC, P. aeruginosa ATCC 9027 [10]: > 512 µg/mL; MIC, P. aeruginosa ATCC 9027 (P. aeruginosa ATCC 9027): 512 µg/mL (≈ 356 µM); MBEC, P. aeruginosa ATCC 9027 [11]: > 512 µg/mL
